Test system: anesthetized dogs
Assay: Cardiovascular and respiratory function in anesthetized dogs (safety pharmacology)
Format: in vivo
Settings: anesthetized Beagle dogs; three ascending doses 400, 800, and 1,200 mg/kg/day; infusion through the jugular vein; compared to the vehicle control group
Procedure: The pharmacological properties of 3-(3,4-dimethoxy-phenyl)-3-(1-oxo-1,3-dihydro-isoindol-2-yl)-propionamide, including activity comparisons with thalidomide, are characterized in in vitro studies. Studies examine the effects of 3-(3,4-dimethoxy-phenyl)-3-(1-oxo-1,3-dihydro-isoindol-2-yl)-propionamide on the production of various cytokines. In addition, a safety pharmacology study of 3-(3,4-dimethoxy-phenyl)-3-(1-oxo-1,3-dihydro-isoindol-2-yl)-propionamide is conducted in dogs and the effects of the compound on ECG parameters are examined further as part of three repeat-dose toxicity studies in primates.
The effects of 3-(3,4-dimethoxy-phenyl)-3-(l-oxo-1,3-dihydro-isoindol-2-yl)-propionamide on cardiovascular and respiratory function are investigated in anesthetized dogs. Two groups of Beagle dogs (2/sex/group) are used. One group receives three doses of vehicle only and the other receives three ascending doses of 3-(3,4-dimethoxy-phenyl)-3-(1-oxo-1,3-dihydro-isoindol-2-yl)-propionamide (400, 800, and 1,200 mg/kg/day). In all cases, doses of 3-(3,4-dimethoxy-phenyl)-3-(1-oxo-1,3-dihydro-isoindol-2-yl)-propionamide or vehicle are successively administered via infusion through the jugular vein separated by intervals of at least 30 minutes. […]

COc1ccc(C(CC(N)=O)N2Cc3ccccc3C2=O)cc1OC (stereo not shown) [3-(3,4-dimethoxy-phenyl)-3-(1-oxo-1,3-dihydro-isoindol-2-yl)-propionamide]
cardiovascular and respiratory changes: minimal

From US20060165649A1, “Methods of using and compositions comprising selective cytokine inhibitory drugs for the treatment and management of myeloproliferative diseases” (priority 2002, published 2006)
